4 compounds from US20260250325A1, “Antiviral Polypeptide Membrane Fusion Inhibitor, and Preparation Method and Application Thereof” (priority 2025, published 2026) can be followed below.

Assay [1] relates to hMPV A2. It is filed as cell-based. The note with it: Vero cells, plaque reduction. The method, then: (§1) African green monkey kidney cells (Vero) were sourced from the ATCC, with catalog number CCL-81. The cells were cultured in a DMEM culture solution in which 10% fetal bovine serum, 1% non-essential amino acids, 1% sodium pyruvate, 1% L-glutamine, 100 U/ml penicillin, and 100 μg/ml streptomycin were added.
(§2) A hMPV plaque experiment culture medium consisted of an Opti-MEM culture solution added with 1% non-essential amino acids, 100 U/mL penicillin, and 100 μg/mL streptomycin.
(§3) hMPV virus strains A2 and B1 were constructed by WuXi App Tec.
(§4) This study used a plaque reduction experiment to detect the in-vitro activity of a test sample against the hMPV virus strains A2 and B1.
(§5) The test sample and an experimental system were tested at 8 concentrations in duplicated wells. The Vero cells were digested with trypsin and then diluted to a concentration of 400,000 cells per milliliter by using a cell culture solution containing 2% serum. The diluted cells were added to a 96-well cell test board, with 100 μL per well, corresponding to 40000 cells per well. The cells were cultured overnight in a 37° C. incubator with 5% CO2.
(§6) On the second day, the test sample was diluted in an experimental culture medium at a fold ratio. The sample diluted at a fold ratio and an equal volume of virus (approximately 200 PFU per well) were well mixed and incubated at 33° C. in 5% CO2 for 1 h. Then, the culture solution in the 96-well cell test board was discarded, the sample virus mixed solution (100 μL) was added to the 96-well cell culture plate, and incubated at 37° C. in 5% CO2 for 2 hours. After 2 h, the sample virus mixed solution was discarded, 200 μL of an experiment culture medium containing the test sample with a corresponding concentration was added, and the culture solution contained 0.8% CMC and 5 μg/ml trypsin. A final concentration of DMSO in the culture solution was 0.5%. A system control antibody was directly added to the experiment culture solution containing 0.8% CMC and 5 μg/ml trypsin. A cell control (cells, without compound treatment or viral infection) and a viral control (cell infection virus, without compound treatment) were set. The cells were cultured for 1 day in the 33° C. incubator with 5% CO2.
(§7) The cells were fixed with 4% paraformaldehyde, and then permeabilization was performed with 0.5% Triton X-100. After the plate was washed with DPBS, a hMPV specific antibody (1:2000 dilution) was added and incubated at 37° C. for 1.5 h. Then, a secondary antibody (1:1000 dilution) was added and incubated at 37° C. for 1 hour. The secondary antibody was discarded, a TrueBlue solution was added, dyeing was performed for approximately 10 minutes; and the plate was washed with running water and then air-dried, and the number of spots in each well was counted by using a microplate imaging counter.
(§8) Raw data was used for analyzing the antiviral activity of the test samples. A calculation formula was shown as follows.
(§9) % inhibition rate=100−(sample value-cell control average value)/(virus control average value-cell control average value)×100
(§10) Non-linear fitting analysis was performed on the inhibition rate of the sample by using GraphPad Prism (version 10), so as to calculate an EC50 value for the sample. A fitting formula was log (inhibitor) vs. response-Variable slope (four parameters).

Assay [2] relates to hMPV B1. It is filed as cell-based. The note with it: Vero cells, plaque reduction. How it is done:
as §1, §2, §3, §4, §5, §6, §7, §8, §9, §10

Assay [3] deals with hPIV3 C243 virus strain. In kind it is cell-based, hPIV. The note with it: LLC-MK2 cells, hPIV3 C243, plaque reduction; read-out: EC50 against hPIV3 virus. The method, then: Rhesus monkey kidney cells (LLC-MK2) were sourced from the ATCC, with a catalog number CCL-7.1. The cells were cultured in a DMEM culture solution in which 10% fetal bovine serum, 1% non-essential amino acids, 1% sodium pyruvate, 1% L-glutamine, 100 U/ml penicillin, and 100 μg/ml streptomycin were added.
An HPIV-3 plaque experiment culture medium consisted of a DMEM culture solution added with 2% fetal bovine serum, 1% non-essential amino acids, 1% sodium pyruvate, 1% L-glutamine, 100 U/ml penicillin, and 100 μg/ml streptomycin.
The hPIV Type 3 (hPIV3 C243) was sourced from the ATCC, with a catalog number VR-93.
This study used the plaque reduction experiment to detect the in-vitro activity of the test sample against the hPIV3 C243 virus strain, and Human Anti-HPIV3 Monoclonal Antibody, clone PIA174 was an experimental system control. The test sample and a system experimental antibody were tested at 8 concentrations in duplicated wells.
The LLC-MK2 cells were digested with trypsin and then diluted to a concentration of 400,000 cells per milliliter by using a cell culture solution containing 2% serum. The diluted cells were added to a 96-well cell test board, with 100 μL per well, corresponding to 40,000 cells per well. The cells were cultured overnight in a 37° C. incubator with 5% CO2.
as §6, with “next” for “second”, “the” for “the test sample was diluted in an experimental culture medium at a fold ratio. The”, “37°” for “33°”, “hour.” for “h.”, “CMC.” for “CMC and 5 μg/ml trypsin.”, “A” for “A system”
The cells were fixed with 4% paraformaldehyde, and then permeabilization was performed with 0.5% Triton X-100. After the plate was washed with DPBS, a hPIV specific antibody (1:2000 dilution) was added and incubated at 37° C. for 1.5 h. Then, a secondary antibody (1:500 dilution) was added and incubated at 37° C. for 1 hour. The secondary antibody was discarded, a TrueBlue solution was added, dyeing was performed for approximately 10 minutes; and the plate was washed with running water and then air-dried, and the number of spots in each well was counted by using a microplate imaging counter.
Raw data was used for calculating the antiviral activity of the samples, and a calculation formula was shown as follows.
as §9, §10

Where a SMILES comes first, the peptide text is derived from it. The star is where a group is joined. Succinyl(4-O-cholesteryl) = CC(C)CCC[C@@H](C)[C@H]1CC[C@H]2[C@@H]3CC=C4C[C@@H](OC(=O)CCC(=O)*)CC[C@]4(C)[C@H]3CC[C@]12C; X1 = CC(C)CCCC(C)C1CCC2C3CC=C4CC(OC(=O)CCC(=O)*)CCC4(C)C3CCC12C

The EC50 is the midpoint of the concentration-response curve. With `CC[C@H](C)[C@H](NC(=O)[C@H](CCCCN)NC(=O)[C@H](CCCCN)NC(=O)[C@H](CC(C)C)NC(=O)[C@H](CO)NC(=O)[C@H](CCC(=O)O)NC(=O)[C@H](CCC(=O)O)NC(=O)[C@@H](NC(=O)[C@H](CCCCN)NC(=O)[C@H](CCCCN)NC(=O)[C@H](CC(N)=O)NC(=O)[C@@H](NC(=O)[C@H](CCC(=O)O)NC(=O)[C@H](CCC(=O)O)NC(=O)[C@@H](NC(=O)[C@H](CCCCN)NC(=O)[C@H](CCCCN)NC(=O)[C@H](CC(=O)O)NC(=O)[C@H](Cc1ccccc1)NC(=O)[C@H](CCC(=O)O)NC(=O)[C@H](CC(=O)O)NC(C)=O)[C@@H](C)CC)C(C)C)[C@@H](C)CC)C(=O)N[C@@H](CCC(=O)O)C(=O)N[C@@H](CCC(=O)O)C(=O)N[C@@H](CO)C(=O)N[C@@H](CC(=O)O)C(=O)N[C@@H](CCCCN)C(=O)N[C@@H](CCCCN)C(=O)N[C@@H](CC(C)C)C(=O)N[C@@H](CCC(=O)O)C(=O)N[C@@H](CCC(=O)O)C(=O)N[C@H](C(=O)N[C@@H](CCC(=O)O)C(=O)N[C@@H](C)C(=O)N[C@@H](C)C(=O)N[C@@H](C)C(=O)N[C@@H](CCCCN)C(=O)N[C@@H](CCCCNC(=O)CCC(=O)OC1CCC2(C)C(=CCC3C2CCC2(C)C(C(C)CCCC(C)C)CCC32)C1)C(N)=O)C(C)C` (stereo partly drawn) [Compound 21] (Ac-DEFDKKIEEVNKKIEESLKKIEESDKKLEEVEAAAKK(X1)-NH2), the concentration for a half-maximal effect (EC50) in assay [1] was determined as 0.0112 µM; in assay [2], 0.00492 µM; in assay [3], 0.0213 µM.

With `CC[C@H](C)[C@H](NC(=O)[C@H](CCCCN)NC(=O)[C@H](CCC(=O)O)NC(=O)[C@H](CC(C)C)NC(=O)[C@H](CO)NC(=O)[C@H](CCC(N)=O)NC(=O)[C@H](CC(N)=O)NC(=O)[C@@H](NC(=O)[C@H](CCCCN)NC(=O)[C@H](CCC(=O)O)NC(=O)[C@H](CC(N)=O)NC(=O)[C@@H](NC(=O)[C@H](CCC(N)=O)NC(=O)[C@H](CO)NC(=O)[C@H](C)NC(=O)[C@H](CC(=O)O)NC(=O)[C@H](Cc1ccccc1)NC(=O)[C@@H](NC(=O)[C@H](CC(C)C)NC(=O)[C@H](CCC(=O)O)NC(=O)[C@H](CC(=O)O)NC(=O)[C@H](Cc1ccc(O)cc1)NC(C)=O)C(C)C)C(C)C)[C@@H](C)CC)C(=O)N[C@@H](CCCNC(=N)N)C(=O)N[C@@H](CCCCN)C(=O)N[C@@H](CO)C(=O)N[C@@H](CC(=O)O)C(=O)N[C@@H](CCC(=O)O)C(=O)N[C@@H](CC(C)C)C(=O)N[C@@H](CC(C)C)C(=O)N[C@@H](Cc1c[nH]cn1)C(=O)N[C@@H](CC(N)=O)C(=O)N[C@H](C(=O)NCC(=O)N[C@@H](CO)C(=O)NCC(=O)N[C@@H](CO)C(=O)NCC(=O)N[C@@H](CCCCNC(=O)CCC(=O)O[C@H]1CC[C@@]2(C)C(=CC[C@H]3[C@@H]4CC[C@H]([C@H](C)CCCC(C)C)[C@@]4(C)CC[C@@H]32)C1)C(N)=O)C(C)C` [Compound 25] (Ac-YDELVFDASQVNEKINQSLEKIRKSDELLHNVGSGSGK(Succinyl(4-O-cholesteryl))-NH2), the EC50 amounted to 0.0864 µM in assay [1], 0.0381 µM in assay [2] and 0.0294 µM in assay [3].

Regarding `CC[C@H](C)[C@H](NC(=O)[C@H](CO)NC(=O)[C@H](C)NC(=O)[C@H](CC(=O)O)NC(=O)[C@H](Cc1ccccc1)NC(=O)[C@H](CCC(=O)O)NC(=O)[C@H](CC(=O)O)NC(C)=O)C(=O)N[C@@H](CO)C(=O)N[C@@H](CCC(N)=O)C(=O)N[C@H](C(=O)N[C@@H](CC(N)=O)C(=O)N[C@@H](CCC(=O)O)C(=O)N[C@@H](CCCCN)C(=O)N[C@H](C(=O)N[C@@H](CC(N)=O)C(=O)N[C@@H](CCC(N)=O)C(=O)N[C@@H](CO)C(=O)N[C@@H](CC(C)C)C(=O)N[C@@H](CCC(=O)O)C(=O)N[C@@H](CCC(=O)O)C(=O)N[C@H](C(=O)N[C@@H](CCCNC(=N)N)C(=O)N[C@@H](CCCCN)C(=O)N[C@@H](CO)C(=O)N[C@@H](CC(=O)O)C(=O)N[C@@H](CCC(=O)O)C(=O)N[C@@H](CC(C)C)C(=O)N[C@@H](CC(C)C)C(=O)N[C@@H](Cc1c[nH]cn1)C(=O)N[C@@H](CC(N)=O)C(=O)N[C@@H](CCC(=O)O)C(=O)N[C@@H](C)C(=O)N[C@@H](C)C(=O)N[C@@H](C)C(=O)N[C@@H](CCCCN)C(=O)N[C@@H](CCCCNC(=O)CCC(=O)O[C@H]1CC[C@@]2(C)C(=CC[C@H]3[C@@H]4CC[C@H]([C@H](C)CCCC(C)C)[C@@]4(C)CC[C@@H]32)C1)C(N)=O)[C@@H](C)CC)[C@@H](C)CC)C(C)C` [Compound 28] (Ac-DEFDASISQVNEKINQSLEEIRKSDELLHNEAAAKK(Succinyl(4-O-cholesteryl))-NH2), the concentration giving a half-maximal response (EC50) in assay [1] was 0.0586 µM; in assay [2] it was 0.0138 µM; in assay [3], 0.0544 µM.

For `CC[C@H](C)[C@H](NC(=O)[C@H](CCCCN)NC(=O)[C@H](CCC(=O)O)NC(=O)[C@H](CC(C)C)NC(=O)[C@H](CO)NC(=O)[C@H](CCC(N)=O)NC(=O)[C@H](CC(N)=O)NC(=O)[C@@H](NC(=O)[C@H](CCCCN)NC(=O)[C@H](CCC(=O)O)NC(=O)[C@H](CC(N)=O)NC(=O)[C@@H](NC(=O)[C@H](CCC(N)=O)NC(=O)[C@H](CO)NC(=O)[C@H](C)NC(=O)[C@H](CC(=O)O)NC(=O)[C@H](Cc1ccccc1)NC(=O)[C@@H](NC(=O)[C@H](CC(C)C)NC(=O)[C@H](CCC(=O)O)NC(=O)[C@H](CC(=O)O)NC(=O)[C@H](Cc1ccc(O)cc1)NC(C)=O)C(C)C)C(C)C)[C@@H](C)CC)C(=O)N[C@@H](CCCNC(=N)N)C(=O)N[C@@H](CCCCN)C(=O)N[C@@H](CO)C(=O)N[C@@H](CC(=O)O)C(=O)N[C@@H](CCC(=O)O)C(=O)N[C@@H](CC(C)C)C(=O)N[C@@H](CC(C)C)C(=O)N[C@@H](Cc1c[nH]cn1)C(=O)N[C@@H](CC(N)=O)C(=O)N[C@H](C(=O)N[C@@H](CCC(=O)O)C(=O)N[C@@H](C)C(=O)N[C@@H](C)C(=O)N[C@@H](C)C(=O)N[C@@H](CCCCN)C(=O)N[C@@H](CCCCNC(=O)CCC(=O)O[C@H]1CC[C@@]2(C)C(=CC[C@H]3[C@@H]4CC[C@H]([C@H](C)CCCC(C)C)[C@@]4(C)CC[C@@H]32)C1)C(N)=O)C(C)C` [Compound 30] (Ac-YDELVFDASQVNEKINQSLEKIRKSDELLHNVEAAAKK(Succinyl(4-O-cholesteryl))-NH2), the EC50 in assay [1] stood at 0.0948 µM; in assay [2] it was 0.0513 µM; in assay [3] it was 0.0482 µM.
